Data on three compounds can be found in patent publication US20080293936A1, “Novel inhibitors of lysyl oxidase” (priority 2007, published 2008).

pIC50: −log10 of the molar value.

Test [1] has as its target T1, Lysyl oxidase (Bos taurus, UniProt P33072).
T1 construct: The enzyme preparation was carried out at 4° C. with fresh material from bovine aorta; from tissue; host or cells: bovine aorta
T1 sequence (P33072 170-418): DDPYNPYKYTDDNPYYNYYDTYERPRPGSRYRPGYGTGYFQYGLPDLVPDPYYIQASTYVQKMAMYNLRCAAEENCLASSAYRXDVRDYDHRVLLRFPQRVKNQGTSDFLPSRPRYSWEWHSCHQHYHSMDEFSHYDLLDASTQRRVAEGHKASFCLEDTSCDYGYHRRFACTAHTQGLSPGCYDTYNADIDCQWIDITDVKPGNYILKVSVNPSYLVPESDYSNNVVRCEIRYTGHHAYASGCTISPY
As to the kind of experiment: Kinetic investigation: dialysis of lysyl oxidase-inhibitor complexes against inhibitor-free buffer, recovery of activity. The test is classed as biochemical, bovine. As to conditions: for vt/vmax: preincubation at 10-fold IC50; for k−1: calculated from slopes; for kon: pH 8.2, from k−1 and IC50, read-out: k1 (association velocity constant) (converted). The method, then: Lysyl oxidasee and lysyl oxidase inhibitors of the structural formulas (XX)-(XXIII) (Table 1) were coincubated at concentrations that were 10-fold over the respective IC50 of the inhibitor and were subsequently dialyzed against 0.5 M borax buffer at pH 8.2 without added inhibitor. The dialysis buffer was exchanged twice during the first hour and subsequently three times in hourly intervals. The volume against which was dialyzed was at least 100-fold greater than the volume of the lysyl oxidase preparation in the dialysis tube. After 2, 4, 5 und 19 h lysyl oxidase activity was measured as described in Example 2. In a parallel assay a dialysis with a non-inhibited lysyl oxidase preparation was carried out to determine the effect of spontaneous activity loss during dialysis and to obtain a reference value (100% activity, positive control). From the obtained change in time-dependent activity it was possible to calculate the dissociation velocity constants of the inhibitor compounds, the half life times of the enzyme-inhibitor complexes and the association velocity constants. In the following section it is derived how these kinetic parameters can be determined form the measurement of the reaction velocity with the inhibited fraction at the timepoint t (vt) and the reaction velocity with the positive control (vmax).
Derivations: During dialysis against buffer without inhibitor the complex (EI) consisting of enzyme (E) and inhibitor (I) decays with a dissociation constant of first k−1
The velocity of decay is proportional to the concentration of the enzyme-inhibitor complex:
Rearranging this equation and definite Integration from the initial enzyme-inhibitor-complex concentration ([EI]0) to the concentration of the complex at the measurement time point t ([EI]t) on the left side and from t=0 to t on the right side yields:
The ratio of the reaction velocity when the inhibited enzyme preparation is used at a measurement time point t (vt) to the reaction velocity when the positive control is used (vmax) is dependent on the proportion of the total enzyme concentration in the assay ([E]0) that is present as enzyme-inhibitor-complex concentration at a time point t ([EI]t). The following equation describes this relationship: […]
For reasons of simplification a variable Rt can be defined
Solving the above differential equation and substituting Rt into the equation one obtains: […]
By linear regression with ln Rt and t, k−1 can be determined as the coefficient of slope.
Using k−1 one can calculate the half-life time of the enzyme-inhibitor-complexes (t1/2) as:
To determine the kinetic association constant the equilibrium is considered:
At the particular inhibitor concentration (IC50) at which the reaction velocity is 50% of the reaction velocity of the positive control, the free enzyme concentration ([E]) is approximately equal to the concentration of the enzyme inhibitor complex ([EI])
By substitution into the equilibrium equation and by simple rearrangement one obtains a term for the association constant which is dependent on the dissociation constant determined above and on the IC50:
Results Tables 2a to 2d show the results from reaction velocity measurements at the time points after 0, 120, 270 and 1140 min of dialysis against an inhibitor-free buffer. The relative reaction velocities and the derived constants are provided. In addition, the results of a regression analysis according to Example 3 are provided, from which the kinetic constants from table 3 can be calculated. Results are shown for compounds (XX)-[…].

In test [2] the target is T1, Lysyl oxidase. The experiment in a line: Lysyl oxidase inhibition, peroxidase-coupled fluorometric activity test. It counts as biochemical, bovine. The procedure:
Lysyl oxidase was isolated form bovine aorta, modified according to Williams und Kagan (1985) Assessment of lysyl oxidase variants by urea gel electrophoresis: evidence against disulfide isomers as bases of the enzyme heterogeneity. Anal. Biochem. 149: 430-7, and Kagan und Sullivan (1982) Lysyl oxidase: preparation and role in elastin biosynthesis. Methods Enzymol. 82(Pt A): 637-50. The enzyme preparation was carried out at 4° C. with fresh material from bovine aorta. The aorta was homogenized for 90 seconds in 2.5. ml buffer per gram of tissue. The buffer consisted of 16 mM potassium phosphate, 150 mM sodium chloride and 1 mM phenylmethylsulfonylfluoride. The homogenized mixture was centrifuged for 20 minutes at 11,000 g. The homogenization was followed by a centrifugation step and was repeated with 150 mM sodium chloride buffer and 1 M urea buffer. The pellet that was obtained after centrifugation was homogenized in buffer plus 4 M urea, was stirred over night and centrifuged twice. The supernatants with the lysyl oxidase activity were stored each time.
To determine the specific enzyme activity of lysyl oxidase a coupled activity test with fluorescence was applied (modified according to nach Trackman P C, Zoski C G, Kagan, H M (1981) Development of a peroxidase-coupled fluorometric assay for lysyl oxidase. Anal. Biochem. 113: 336-342).
Into a 2 ml plastic cuvette the following reaction solution was pipetted:
The fluorescence of the reaction solution was determined at an excitation wavelength of 350 nm and measurement of emission was carried out at 425 nm at 37° C. Before the addition of the sample solution fluorescence was determined by calibration with 1 nmol hydrogen peroxide. This increase in fluorescence was equivalent to a turnover of 1 nmol 1,5-diaminopentane. As a positive control the time course of the increase in fluorescence when an equivalent volume of lysyl oxidase without inhibitor was added, was used. The development of fluorescence of the assay without the addition of lysyl oxidase used as a negative control. […]

The mark [3] stands for this setting: regression analysis below Tables 2a-2d.

On to `COCCc1ccc(Oc2c(-n3ccnc3)cnn(-c3ccc(Cl)cc3)c2=O)cc1` [(XX), 2-(4-chlorophenyl)-5-(1H-imidazole-1-yl)-4-[4-(2-methoxyethyl)phenoxy]pyridazine-3(2H)-one], for which, on Lysyl oxidase [1] (0 min of dialysis), the Rt was determined as 1, the “ln Rt” value is on record as 0 and the vt/vmax is listed as 0. On Lysyl oxidase [1] (120 min of dialysis), the Rt is listed as 0.91, the “ln Rt” value is on record as −9.431 × 10^−2 and the vt/vmax was 9 × 10^−2. Further, on Lysyl oxidase [1] (270 min of dialysis), the Rt is 0.72, the “ln Rt” value was −0.3285 and the vt/vmax is 0.28. Further, on Lysyl oxidase [1] (1,140 min of dialysis), the Rt is listed as 0 and the vt/vmax is reported as 1. In addition, at Lysyl oxidase [1] (Table 3), the “k−1” value is 0.053 h⁻¹ and the kon is 13.6 M⁻¹ s⁻¹.

As for `O=c1c(Oc2ccc(-c3ccccc3)cc2)c(-n2ccnc2)cnn1-c1ccc(Cl)cc1Cl` [(XXII), 4-(1,1′-biphenyl-4-yloxy)-2-(2,4-dichlorophenyl)-5-(1H-imidazole-1-yl)pyridazine-3(2H)-one], the Rt at Lysyl oxidase [1] (0 min of dialysis) is recorded as 1; at Lysyl oxidase [1] (120 min of dialysis) it was 0.75; on Lysyl oxidase [1] (270 min of dialysis), 0.64; on Lysyl oxidase [1] (1,140 min of dialysis) it was 0.33. Further, the “ln Rt” value at Lysyl oxidase [1] (0 min of dialysis) was 0; at Lysyl oxidase [1] (120 min of dialysis), −0.2877; at Lysyl oxidase [1] (270 min of dialysis), −0.4463; at Lysyl oxidase [1] (1,140 min of dialysis) it was −1.109. In addition, the vt/vmax is given as 0 on Lysyl oxidase [1] (0 min of dialysis), 0.25 on Lysyl oxidase [1] (120 min of dialysis), 0.36 on Lysyl oxidase [1] (270 min of dialysis) and 0.67 on Lysyl oxidase [1] (1,140 min of dialysis). The “k−1” value on Lysyl oxidase [1] (Table 3) is 0.074 h⁻¹. Also, the kon at Lysyl oxidase [1] (Table 3) is 75 M⁻¹ s⁻¹. In addition, the “k−1 (dissociation velocity constant)” value on Lysyl oxidase [1] (setting [3]) was 0.05344 h⁻¹.

As to `CCCc1ccc(Oc2c(-n3ccnc3)cnn(-c3ccc(Cl)cc3)c2=O)cc1` [(XXIII), 2-(4-chlorophenyl)-5-(1H-imidazole-1-yl)-4-(4-propylphenoxy)pyridazine-3(2H)-one], the negative-log IC50 (pIC50) at Lysyl oxidase [2] (Table 1, lysyl oxidase from bovine aorta, 37° C., pH 8.2) is 5.83; against Lysyl oxidase [2] (Table 3) it was 5.83; against Lysyl oxidase [2] (as quoted in titles of Tables 2a-2d) it was about 5.83. Also, the Rt on Lysyl oxidase [1] (0 min of dialysis) amounted to 0.84; on Lysyl oxidase [1] (120 min of dialysis) it was 0.47; on Lysyl oxidase [1] (270 min of dialysis), 0.37; on Lysyl oxidase [1] (1,140 min of dialysis), 0.11. The “ln Rt” value at Lysyl oxidase [1] (0 min of dialysis) is −0.1744; at Lysyl oxidase [1] (120 min of dialysis) it was −0.7550; on Lysyl oxidase [1] (270 min of dialysis), −0.9943; on Lysyl oxidase [1] (1,140 min of dialysis), −2.207. In addition, the vt/vmax at Lysyl oxidase [1] (0 min of dialysis) was 0.16; on Lysyl oxidase [1] (120 min of dialysis) it was 0.53; on Lysyl oxidase [1] (270 min of dialysis), 0.63; at Lysyl oxidase [1] (1,140 min of dialysis) it was 0.89. For the same compound, the “k−1” value on Lysyl oxidase [1] (Table 3) was 0.097 h⁻¹. For the same compound, the residence time at Lysyl oxidase [1] (Table 3, from k−1, read-out: t1/2 (half-life time of the enzyme-inhibitor complex) (converted)) was 438 min. In addition, the kon at Lysyl oxidase [1] (Table 3) was 18.3 M⁻¹ s⁻¹. At Lysyl oxidase [1] (setting [3]), the “k−1 (dissociation velocity constant)” value worked out at 0.09694 h⁻¹. Moreover, at Lysyl oxidase [1] (setting [3]), the “slope (linear regression of ln Rt against t)” value is recorded as −1.616×10^−3 1/min.
